Common to all, as to format: functional
The species named for assay [1] is Cavia porcellus. As to the kind of experiment: Compound was tested for chronotropic activity in right atria of guinea pig.
The species entered for assay [2] is Cavia porcellus. As to the kind of experiment: Compound was tested for negative inotropic activity in left atria of guinea pig.
A further assay is filed under the species Rattus norvegicus. As to the kind of experiment: Compound was tested for […] vasorelaxing activity in aorta of rat.

For `N#CN/C(=N\CCc1ccccc1)c1cccnc1`, the results for the pD2 in the assay filed under Cavia porcellus [1], in the assay listed under Cavia porcellus [2] and in the assay filed under Rattus norvegicus were 3.85, 4.6 and 6.4, respectively.

Regarding `N#CN/C(=N\CCO[N+](=O)[O-])c1cccnc1`, the values for the pD2 in the assay filed under Cavia porcellus [1], in the assay filed under Cavia porcellus [2] and in the assay filed under Rattus norvegicus were 4.42, 4.84 and 6.95, respectively.

On to `O=C(NCCc1ccccc1)c1cccnc1`, for which the pD2 was under 3.5 in the assay filed under Cavia porcellus [1], under 3.5 in the assay listed under Cavia porcellus [2] and 4.09 in the assay listed under Rattus norvegicus.

With `S=C(NCCc1ccccc1)c1cccnc1`, the pD2 in the assay filed under Cavia porcellus [1] turned out to be 4.1; in the assay listed under Cavia porcellus [2], 4.39; in the assay filed under Rattus norvegicus, 4.95.

As to `S=C(NCCc1ccccc1Cl)c1cccnc1`, the pD2 in the assay listed under Cavia porcellus [1] is listed as 4.54; in the assay listed under Cavia porcellus [2] it was under 4.5; in the assay listed under Rattus norvegicus, 5.64.

As to `N#CN/C(=N\CCc1ccccc1Cl)c1cccnc1`, the pD2 is listed as 5.32 in the assay listed under Cavia porcellus [1], 5.51 in the assay filed under Cavia porcellus [2] and 7.57 in the assay filed under Rattus norvegicus.

As for `O=C(NCCc1ccccc1Cl)c1cccnc1`, the pD2 in the assay filed under Cavia porcellus [1] is under 3.5; in the assay filed under Cavia porcellus [2] it was 3.7; in the assay filed under Rattus norvegicus it was 4.83.

For the compound `O=C(NCCO[N+](=O)[O-])c1cccnc1` [NICORANDIL], the pD2 in the assay listed under Cavia porcellus [1] was under 3.5; in the assay filed under Cavia porcellus [2], under 3.5; in the assay filed under Rattus norvegicus, 5.62.

The values are drawn from ChEMBL document CHEMBL1159146, “Structure-activity studies of N-cyano-3-pyridinecarboxamidines and their amide and thioamide congeners” (1994).
